Here are results for four molecules from article PMC11116522, “Illuminating the function of the orphan transporter, SLC22A10, in humans and other primates” (Nature Communications, 2024).

Counter-ions that a name gives are not always drawn.

Data set [1] concerns the target T1, gorilla SLC22A10 (552 aa) (Gorilla gorilla, UniProt G3RG24).
T1 construct: full length 552 aa, synthetic cDNA, HEK293 Flp-In cells
In words: radiolabelled uptake in HEK293 Flp-In cells. The data set is classed as cell-based. The settings on record: labelled compound; HBSS.

In the next data set the target is T2, gibbon SLC22A10 (533 aa) (Nomascus leucogenys, UniProt G1QWU8).
T2 construct: gene LOC100590002; full length 533 aa isoform, synthetic cDNA, HEK293 Flp-In cells
T2 sequence (G1QWU8 1-533): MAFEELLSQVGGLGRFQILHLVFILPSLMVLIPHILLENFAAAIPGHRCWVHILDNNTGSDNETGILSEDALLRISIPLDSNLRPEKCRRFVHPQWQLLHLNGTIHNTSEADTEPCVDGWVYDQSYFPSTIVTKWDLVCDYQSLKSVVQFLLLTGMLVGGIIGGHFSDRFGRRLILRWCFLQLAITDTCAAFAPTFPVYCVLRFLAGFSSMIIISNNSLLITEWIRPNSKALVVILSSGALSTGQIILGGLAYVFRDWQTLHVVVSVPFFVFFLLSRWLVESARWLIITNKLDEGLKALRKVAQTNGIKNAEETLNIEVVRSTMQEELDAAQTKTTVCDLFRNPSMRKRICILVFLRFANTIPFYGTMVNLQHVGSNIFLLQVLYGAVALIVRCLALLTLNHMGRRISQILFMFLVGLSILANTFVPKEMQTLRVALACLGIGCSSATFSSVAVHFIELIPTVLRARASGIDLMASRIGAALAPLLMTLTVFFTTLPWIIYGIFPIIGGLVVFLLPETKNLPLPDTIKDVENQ
The experiment in a line: radiolabelled uptake in HEK293 Flp-In cells. The data set is classed as cell-based. The settings on record: labelled compound; HBSS.

Data set [2] addresses T3, orangutan SLC22A10 (533 aa) (Pongo abelii, UniProt A0A8I5UWR8).
T3 construct: full length 533 aa isoform, synthetic cDNA, HEK293 Flp-In cells
T3 sequence (A0A8I5UWR8 1-533): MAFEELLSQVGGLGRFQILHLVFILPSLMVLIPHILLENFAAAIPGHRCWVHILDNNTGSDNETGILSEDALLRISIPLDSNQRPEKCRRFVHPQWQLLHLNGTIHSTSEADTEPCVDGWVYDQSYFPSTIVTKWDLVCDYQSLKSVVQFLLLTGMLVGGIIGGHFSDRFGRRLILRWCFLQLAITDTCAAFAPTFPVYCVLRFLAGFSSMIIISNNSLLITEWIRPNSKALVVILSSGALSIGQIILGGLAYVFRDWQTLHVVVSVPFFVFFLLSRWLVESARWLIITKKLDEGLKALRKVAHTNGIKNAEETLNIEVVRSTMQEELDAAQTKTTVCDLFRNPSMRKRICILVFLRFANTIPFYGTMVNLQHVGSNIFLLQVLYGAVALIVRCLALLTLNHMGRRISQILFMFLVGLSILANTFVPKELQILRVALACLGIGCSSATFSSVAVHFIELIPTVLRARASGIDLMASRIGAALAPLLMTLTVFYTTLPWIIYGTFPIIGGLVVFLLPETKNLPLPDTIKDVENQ
The experiment in a line: radiolabelled uptake in HEK293 Flp-In cells. The data set is classed as cell-based. The settings on record: labelled compound; HBSS.

In data set [3] the target is T4, chimpanzee SLC22A10 (533 aa) (Pan troglodytes, UniProt A0A2I3TWY5).
T4 sequence (A0A2I3TWY5 1-540): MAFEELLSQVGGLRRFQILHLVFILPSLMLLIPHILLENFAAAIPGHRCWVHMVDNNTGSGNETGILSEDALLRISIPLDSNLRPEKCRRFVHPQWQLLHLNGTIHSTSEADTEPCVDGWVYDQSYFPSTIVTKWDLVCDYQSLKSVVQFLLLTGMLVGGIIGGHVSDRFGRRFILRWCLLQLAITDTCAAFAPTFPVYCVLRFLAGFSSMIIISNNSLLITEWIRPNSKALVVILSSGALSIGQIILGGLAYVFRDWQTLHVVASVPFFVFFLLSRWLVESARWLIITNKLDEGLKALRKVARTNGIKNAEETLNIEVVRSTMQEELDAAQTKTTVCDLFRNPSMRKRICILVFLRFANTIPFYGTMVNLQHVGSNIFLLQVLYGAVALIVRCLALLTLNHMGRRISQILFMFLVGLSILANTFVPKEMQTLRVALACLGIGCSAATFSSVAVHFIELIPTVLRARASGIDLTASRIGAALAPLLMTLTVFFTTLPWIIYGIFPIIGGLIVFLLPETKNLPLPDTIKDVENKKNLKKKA
The experiment in a line: radiolabelled uptake in stable HEK293 Flp-In cells, Michaelis-Menten fit. The data set is classed as cell-based. The settings on record: 37 °C, 5 min uptake, HBSS; empty-vector uptake subtracted; labelled compound.

A further data set concerns the target T5, human SLC22A10 (541 aa) (Homo sapiens, UniProt Q63ZE4, P220L).
T5 construct: full length 541 aa, pcDNA3.1(+) or N-terminal eGFP fusion, transient HEK293 Flp-In cells
T5 sequence (Q63ZE4 1-541 P220L): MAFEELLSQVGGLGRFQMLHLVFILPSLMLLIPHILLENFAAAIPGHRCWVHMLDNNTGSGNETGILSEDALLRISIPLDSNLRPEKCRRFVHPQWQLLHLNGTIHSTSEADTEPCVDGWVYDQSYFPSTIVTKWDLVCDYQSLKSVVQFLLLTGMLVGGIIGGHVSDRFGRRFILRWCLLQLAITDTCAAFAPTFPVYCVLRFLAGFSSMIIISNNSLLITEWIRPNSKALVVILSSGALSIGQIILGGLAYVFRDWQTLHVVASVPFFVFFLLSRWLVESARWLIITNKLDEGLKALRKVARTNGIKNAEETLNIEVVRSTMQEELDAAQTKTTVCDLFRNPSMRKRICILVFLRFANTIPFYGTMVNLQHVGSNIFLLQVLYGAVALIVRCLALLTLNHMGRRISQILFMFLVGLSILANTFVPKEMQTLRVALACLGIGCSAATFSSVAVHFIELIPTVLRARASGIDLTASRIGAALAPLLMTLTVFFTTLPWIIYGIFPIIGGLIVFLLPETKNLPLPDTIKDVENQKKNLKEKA
In words: radiolabelled uptake in transiently transfected HEK293 Flp-In cells. The settings on record: labelled compound; HBSS. It is filed as cell-based.

Data set [4] addresses T6, squirrel monkey SLC22A10 (552 aa) (Saimiri boliviensis, UniProt A0A2K6SBP5).
T6 construct: full length 552 aa, synthetic cDNA, HEK293 Flp-In cells
T6 sequence (A0A2K6SBP5 1-552): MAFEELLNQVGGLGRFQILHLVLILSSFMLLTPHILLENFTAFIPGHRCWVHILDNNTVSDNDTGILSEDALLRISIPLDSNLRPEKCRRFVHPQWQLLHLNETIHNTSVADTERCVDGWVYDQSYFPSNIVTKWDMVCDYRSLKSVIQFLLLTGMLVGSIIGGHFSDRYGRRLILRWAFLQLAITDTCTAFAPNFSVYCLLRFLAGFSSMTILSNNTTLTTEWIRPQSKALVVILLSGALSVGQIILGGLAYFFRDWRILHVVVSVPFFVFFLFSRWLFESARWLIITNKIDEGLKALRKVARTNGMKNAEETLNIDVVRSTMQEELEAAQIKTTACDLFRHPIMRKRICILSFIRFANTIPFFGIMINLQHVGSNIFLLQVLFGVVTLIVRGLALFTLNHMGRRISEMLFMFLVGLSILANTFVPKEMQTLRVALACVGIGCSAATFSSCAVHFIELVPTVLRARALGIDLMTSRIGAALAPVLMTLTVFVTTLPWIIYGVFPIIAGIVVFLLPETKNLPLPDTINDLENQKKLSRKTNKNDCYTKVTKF
The experiment in a line: radiolabelled uptake in HEK293 Flp-In cells. The data set is classed as cell-based. The settings on record: labelled compound; HBSS.

Substrate in data set [5]: C[C@]12CC[C@@H]3c4ccc(O)cc4CC[C@H]3[C@@H]1CC[C@@H]2O[C@@H]1O[C@H](C(=O)O)[C@@H](O)[C@H](O)[C@H]1O
In words: radiolabelled uptake in stable HEK293 Flp-In cells, Michaelis-Menten fit. The data set is classed as cell-based, Pan troglodytes. The settings on record: 37 °C, 5 min uptake, HBSS, empty-vector uptake subtracted, labelled compound.

T1 sequence (G3RG24 entry or part of it): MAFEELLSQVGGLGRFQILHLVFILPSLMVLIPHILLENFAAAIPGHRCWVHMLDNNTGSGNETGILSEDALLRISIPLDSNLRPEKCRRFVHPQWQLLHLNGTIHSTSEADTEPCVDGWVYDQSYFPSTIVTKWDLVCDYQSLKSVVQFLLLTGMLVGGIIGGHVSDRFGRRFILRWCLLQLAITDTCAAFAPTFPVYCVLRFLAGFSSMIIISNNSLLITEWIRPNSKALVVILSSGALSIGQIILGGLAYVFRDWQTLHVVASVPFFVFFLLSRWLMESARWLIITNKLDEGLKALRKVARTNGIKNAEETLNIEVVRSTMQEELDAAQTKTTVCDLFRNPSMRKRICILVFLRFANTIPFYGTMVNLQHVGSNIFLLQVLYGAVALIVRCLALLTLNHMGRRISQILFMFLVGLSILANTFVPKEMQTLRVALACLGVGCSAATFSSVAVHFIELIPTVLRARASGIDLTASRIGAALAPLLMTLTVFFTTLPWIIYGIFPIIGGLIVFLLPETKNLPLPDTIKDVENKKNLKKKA

Broadly, the Km is the substrate concentration at which the rate is half of its maximum. In the case of `C[C@]12CC[C@@H]3c4ccc(O)cc4CC[C@H]3[C@@H]1CC[C@@H]2O[C@@H]1O[C@H](C(=O)O)[C@@H](O)[C@H](O)[C@H]1O` [estradiol-17β-glucuronide], the fold uptake result was “Significant accumulation of [^3H]-estradiol-17β-glucuronide and [^3H]-androstanediol-3α-glucuronide were observed in cells expressing” in data set [1]; “from chimpanzee, orangutan and gibbon accumulated [^3H]-estradiol-17β-glucuronide and [^3H]-folic acid” on gibbon SLC22A10 (533 aa); “from chimpanzee, orangutan and gibbon accumulated [^3H]-estradiol-17β-glucuronide and [^3H]-folic acid” in data set [2]; “resulting in substantial accumulation of the substrate, estradiol-17β-glucuronide” at human SLC22A10 (541 aa). The Km in data set [3] was 3.28 ± 2.25 µM.
As to `C[C@]12CC[C@@H]3c4ccc(OS(=O)(=O)O)cc4CC[C@H]3[C@@H]1CCC2=O` [estrone sulfate], the uptake entry in data set [4] was “squirrel monkey, a New World monkey, preferred estrone sulfate over estradiol-17β- glucuronide”.
In the case of `Nc1nc2ncc(CNc3ccc(C(=O)N[C@@H](CCC(=O)O)C(=O)O)cc3)nc2c(=O)[nH]1` [folic acid], the fold uptake result on gibbon SLC22A10 (533 aa) was “from chimpanzee, orangutan and gibbon accumulated [^3H]-estradiol-17β-glucuronide and [^3H]-folic acid”; in data set [2], “from chimpanzee, orangutan and gibbon accumulated [^3H]-estradiol-17β-glucuronide and [^3H]-folic acid”.

B1: chimpanzee SLC22A10 (552 aa) (Pan troglodytes) (protein)
chain: MAFEELLSQVGGLRRFQILHLVFILPSLMLLIPHILLENFAAAIPGHRCWVHMVDNNTGSGNETGILSEDALLRISIPLDSNLRPEKCRRFVHPQWQLLHLNGTIHSTSEADTEPCVDGWVYDQSYFPSTIVTKWDLVCDYQSLKSVVQFLLLTGMLVGGIIGGHVSDRFGRRFILRWCLLQLAITDTCAAFAPTFPVYCVLRFLAGFSSMIIISNNSLLITEWIRPNSKALVVILSSGALSIGQIILGGLAYVFRDWQTLHVVASVPFFVFFLLSRWLVESARWLIITNKLDEGLKALRKVARTNGIKNAEETLNIEVVRSTMQEELDAAQTKTTVCDLFRNPSMRKRICILVFLRFANTIPFYGTMVNLQHVGSNIFLLQVLYGAVALIVRCLALLTLNHMGRRISQILFMFLVGLSILANTFVPKEMQTLRVALACLGIGCSAATFSSVAVHFIELIPTVLRARASGIDLTASRIGAALAPLLMTLTVFFTTLPWIIYGIFPIIGGLIVFLLPETKNLPLPDTIKDVENQKKISRKRHKNDCYTKVTKF
On to B1, for which the Michaelis constant (Km) in data set [5] is 2.16 ± 0.59 µM.
